Measurements taken from patent US4897382A, “Organic amide compounds derived from nitrogenous lipids” (priority 1981, dated 1990).
“Also recorded” adds a separate entry of the source. Where two headings read alike, the source gives them in different places.

Columns and labels:
[1] = Anticonvulsant effects in rat (isoniazide convulsions); format: in vivo; conditions: isoniazide 160 mg/kg (s.c.) alone
Protocol: The in vivo activity of Product 1 was measured by the method described by Costa et al (E. Costa, A. Guidotti and C. C. Mao; "Evidence for involvement of GABA in the Action of Benzodiazepines: Studies in Rat Cerebellum" in Mechanism of Action of Benzodiazepines; Ed. by E. Costa and P. Greengard, New York, Raven Press. pp. 113-130 (1975)) and by Loescher and Frey (Loesher, W. and Frey, H. H.; "Effect of convulsant and anticonvulsant agents on level and metabolism of gamma-aminobutyric acid in mouse brain"; Naunyn-Schmiedeberg's Arch. Pharmacol. 296, 263-269 (1977)). These tests are based on the known activity of isoniazide to cause convulsions and a lowering of the GABA cerebral levels and the glutamic-decarboxylase enzyme activity.

dopamine receptors = biological target: T1, dopamine receptors (Rattus norvegicus, UniProt P61169); experiment: Binding of (^3H)-spiroperidole to hypophysis membranes of rat; conditions: for activity at 1 µM: test substance 10^-6 M; for activity at 0.1 µM: test substance 10^-7 M
T1 construct: on hypophysis sinaptosomal rat membranes; from tissue; host or cells: rat hypophysis (pituitary), synaptosomal membranes
Protocol: The in vitro biological activity was determined by comparative tests measuring the binding power of the labelled spiroperidole (^3 H)-spiroperidole on hypophysis sinaptosomal rat membranes according to the method described by Greese et al (GREESE I., SCHNEIDER R. and SNYDER S. H.; H-spiroperidole labels dopamine receptors in pituitary and brain; Europ. J. Pharmacol. 46, 377-381 (1977)).

prolactin [2] = experiment: Hypoprolactinemic effect in rats, serum prolactin by RIA, at the circadian peak at 4 p.m.; conditions: for inhibition in vivo at 0.5 mg/kg / inhibition in vivo at 5 mg/kg: Rattus norvegicus; for in vivo (hypoprolactinemic) activity, in words: rats, summary statement
prolactin [3] = experiment: Hypoprolactinemic effect in rats, serum prolactin by RIA, sulpiride-treated (hyperprolactinemic) animals; conditions: for inhibition in vivo at 0.5 mg/kg / inhibition in vivo at 5 mg/kg: Rattus norvegicus; for inhibition in vivo at 0.5 mg/kg: read-out: Prolactin Inhibition %, sulpiride 10 γ/kg + 0.5 mg/kg test substance; for inhibition in vivo at 5 mg/kg: read-out: Prolactin Inhibition %, sulpiride 10 γ/kg + 5.0 mg/kg test substance
[4] = read-out: Product bound % ((^3H) spiroperidole binding to hypophysis membranes), (^3H) spiroperidole 2.10^-9 M (2 nM), test substance 10^-4 M
[5] = read-out: Product bound % ((^3H) spiroperidole binding to hypophysis membranes), (^3H) spiroperidole 2.10^-9 M (2 nM), test substance 10^-5 M
[6] = read-out: Product bound % ((^3H) spiroperidole binding to hypophysis membranes), (^3H) spiroperidole 2.10^-9 M (2 nM)
[7] = 0.5 mg/kg, circadian peak at 4 p.m.
[8] = 5.0 mg/kg, circadian peak at 4 p.m.
[9] = read-out: Prolactin Inhibition %, 0.5 mg/kg, circadian peak at 4 p.m.
[10] = read-out: Prolactin Inhibition %, 5.0 mg/kg, circadian peak at 4 p.m.
[11] = sulpiride 10 γ/kg + 0.5 mg/kg test substance
[12] = sulpiride 10 γ/kg + 5.0 mg/kg test substance
[13] = (^3H) spiroperidole 2.10^-9 M (2 nM), test substance 10^-4 M, read-out: Product bound % ((^3H) spiroperidole binding to hypophysis membranes)
[14] = (^3H) spiroperidole 2.10^-9 M (2 nM), test substance 10^-5 M, read-out: Product bound % ((^3H) spiroperidole binding to hypophysis membranes)
[15] = (^3H) spiroperidole 2.10^-9 M (2 nM), read-out: Product bound % ((^3H) spiroperidole binding to hypophysis membranes)
[16] = read-out: Prolactin Inhibition %

T1 sequence (P61169 whole entry): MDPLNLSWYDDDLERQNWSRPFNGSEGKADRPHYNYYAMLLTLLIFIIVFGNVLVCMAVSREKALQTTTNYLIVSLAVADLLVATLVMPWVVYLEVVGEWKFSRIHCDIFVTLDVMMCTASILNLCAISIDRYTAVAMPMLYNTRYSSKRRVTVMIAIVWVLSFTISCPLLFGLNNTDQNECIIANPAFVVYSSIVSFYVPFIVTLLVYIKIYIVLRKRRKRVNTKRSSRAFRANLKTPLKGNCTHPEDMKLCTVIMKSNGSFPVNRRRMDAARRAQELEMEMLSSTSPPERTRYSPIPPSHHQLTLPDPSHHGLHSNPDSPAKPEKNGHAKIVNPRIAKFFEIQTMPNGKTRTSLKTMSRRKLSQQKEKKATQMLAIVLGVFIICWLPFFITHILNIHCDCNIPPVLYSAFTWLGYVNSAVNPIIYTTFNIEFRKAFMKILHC

**Q.** Which “Latency of the convulsions measured” value [1] does the source give for NNC(=O)c1ccncc1 [Isoniazide, isoniazide] here?
**A.** The value was 3070 ± 110 s.

**Q.** What about the “Number of animals in convulsions” value [1] of the same compound?
**A.** The value was 26/30.

**Q.** And the “Number of dead animals” value [1]?
**A.** Its value is 15.

**Q.** Which “binding power / in vitro activity, in words” value (dopamine receptors; compared to the parent acid or lipid alone) does the source give for CCCCCCCCCCCCCC=CC(O)C(CO)NC(=O)[C@@H]1C=C2c3cccc4[nH]cc(c34)C[C@H]2N(C)C1 (stereo partly shown) [Product 2.2, Lysergylsphingosine-amide] here?
**A.** The value was “far superior to either lysergic acid or sphingosine alone”.

**Q.** And the activity at 100 µM (dopamine receptors; [4])?
**A.** The activity at 100 µM was 35%.

**Q.** What about the activity at 10 µM (dopamine receptors; [5]) of the same compound?
**A.** Its activity at 10 µM is 55%.

**Q.** What about the activity at 1 µM (dopamine receptors; [6]) of the same compound?
**A.** The activity at 1 µM was 85%.

**Q.** What about the activity at 0.1 µM (dopamine receptors; [6]) of the same compound?
**A.** The activity at 0.1 µM was 100%.

**Q.** What about the Prolactin (prolactin [2]; [7]) of the same compound?
**A.** The Prolactin was 48.0 ± 4.8 ng/mL.

**Q.** What about the Prolactin (prolactin [2]; [8]) of the same compound?
**A.** Its Prolactin is 40.0 ± 2.6 ng/mL.

**Q.** And the inhibition in vivo at 0.5 mg/kg (prolactin [2]; [9])?
**A.** The inhibition in vivo at 0.5 mg/kg was 27%.

**Q.** What about the inhibition in vivo at 5 mg/kg (prolactin [2]; [10]) of the same compound?
**A.** The inhibition in vivo at 5 mg/kg was 39%.

**Q.** And the “in vivo (hypoprolactinemic) activity, in words” value (“in vivo … in words” for short) (prolactin [2])?
**A.** The value was “far superior to either lysergic acid or sphingosine alone”.

**Q.** What about the inhibition in vivo at 0.5 mg/kg (prolactin [3]) of the same compound?
**A.** Its inhibition in vivo at 0.5 mg/kg is 32%.

**Q.** What about the inhibition in vivo at 5 mg/kg (prolactin [3]) of the same compound?
**A.** Its inhibition in vivo at 5 mg/kg is 44%.

**Q.** What about the Prolactin (prolactin [3]; [11]) of the same compound?
**A.** Its Prolactin is 59.0 ± 6.0 ng/mL.

**Q.** And the Prolactin (prolactin [3]; [12])?
**A.** The Prolactin was 49.0 ± 5.0 ng/mL.

**Q.** With CN1C[C@H](C(=O)O)CC2c3cccc4[nH]cc(c34)C[C@H]21 (stereo partly shown) [dihydrolysergic acid] as the compound, how does the “Product bound % ((^3H) spiroperidole binding to hypophysis membranes)” value (dopamine receptors; (^3H) spiroperidole 2.10^-9 M (2 nM), test substance 10^-4 M, 100 µM) read?
**A.** The value was 60%.

**Q.** And the “Product bound % ((^3H) spiroperidole binding to hypophysis membranes)” value (dopamine receptors; (^3H) spiroperidole 2.10^-9 M (2 nM), test substance 10^-5 M, 10 µM)?
**A.** The value was 90%.

**Q.** And the activity at 100 µM (dopamine receptors; [4])?
**A.** Its activity at 100 µM is 45%.

**Q.** What about the activity at 10 µM (dopamine receptors; [5]) of the same compound?
**A.** The activity at 10 µM was 95%.

**Q.** What about the activity at 1 µM (dopamine receptors; [6]) of the same compound?
**A.** The activity at 1 µM was 100%.

**Q.** And the activity at 0.1 µM (dopamine receptors; [6])?
**A.** The activity at 0.1 µM was 100%.

**Q.** And the inhibition in vivo at 0.5 mg/kg (prolactin [2]; [9])?
**A.** Its inhibition in vivo at 0.5 mg/kg is 0%.

**Q.** What about the inhibition in vivo at 5 mg/kg (prolactin [2]; [10]) of the same compound?
**A.** Its inhibition in vivo at 5 mg/kg is 25%.

**Q.** What about the “in vivo … in words” value (prolactin [2]) of the same compound?
**A.** The value was “weak effect; also recorded: essentially inactive when administered alone”.

**Q.** What about the inhibition in vivo at 0.5 mg/kg (prolactin [3]) of the same compound?
**A.** Its inhibition in vivo at 0.5 mg/kg is 0%.

**Q.** With CCCCCCCCCCCCCCCC(O)C(N)CO (stereo not shown) [dihydrosphingosine] as the compound, how does the activity at 100 µM (dopamine receptors; [13]) read?
**A.** The activity at 100 µM was 100%.

**Q.** What about the activity at 10 µM (dopamine receptors; [14]) of the same compound?
**A.** The activity at 10 µM was 100%.

**Q.** And the activity at 1 µM (dopamine receptors; [15])?
**A.** Its activity at 1 µM is 100%.

**Q.** And the activity at 0.1 µM (dopamine receptors; [15])?
**A.** The activity at 0.1 µM was 100%.

**Q.** And the Prolactin (prolactin [2]; [7])?
**A.** The Prolactin was 66.0 ± 4.2 ng/mL.

**Q.** And the Prolactin (prolactin [2]; [8])?
**A.** The Prolactin was 60.0 ± 2.8 ng/mL.

**Q.** What about the inhibition in vivo at 0.5 mg/kg (prolactin [2]; [16]) of the same compound?
**A.** Its inhibition in vivo at 0.5 mg/kg is 0%.

**Q.** And the inhibition in vivo at 5 mg/kg (prolactin [2]; [16])?
**A.** Its inhibition in vivo at 5 mg/kg is 0%.

**Q.** And the Prolactin (prolactin [3]; [11])?
**A.** The Prolactin was 81.0 ± 11.0 ng/mL.

**Q.** What about the Prolactin (prolactin [3]; [12]) of the same compound?
**A.** Its Prolactin is 74.0 ± 6.0 ng/mL.

**Q.** Which “in vivo … in words” value (prolactin [2]) does the source give for CN1C[C@@H](C(=O)O)C=C2c3cccc4[nH]cc(c34)C[C@H]21 [isolysergic acid] here?
**A.** The value was “essentially inactive when administered alone”.

**Q.** For CN1C[C@H](C(=O)O)C=C2c3cccc4[nH]cc(c34)C[C@H]21 [lysergic acid], which activity at 100 µM (dopamine receptors; [4]) is on record?
**A.** Its activity at 100 µM is 60%.

**Q.** What about the activity at 10 µM (dopamine receptors; [5]) of the same compound?
**A.** Its activity at 10 µM is 90%.

**Q.** And the activity at 1 µM (dopamine receptors; [6])?
**A.** The activity at 1 µM was 100%.

**Q.** What about the activity at 0.1 µM (dopamine receptors; [6]) of the same compound?
**A.** The activity at 0.1 µM was 100%.

**Q.** And the Prolactin (prolactin [2]; [7])?
**A.** The Prolactin was 61.0 ± 3.8 ng/mL.

**Q.** What about the Prolactin (prolactin [2]; [8]) of the same compound?
**A.** Its Prolactin is 52.0 ± 6.2 ng/mL.

**Q.** What about the inhibition in vivo at 0.5 mg/kg (prolactin [2]; [9]) of the same compound?
**A.** Its inhibition in vivo at 0.5 mg/kg is 0%.

**Q.** And the inhibition in vivo at 5 mg/kg (prolactin [2]; [10])?
**A.** The inhibition in vivo at 5 mg/kg was 20%.

**Q.** And the “in vivo … in words” value (prolactin [2])?
**A.** The value was “essentially inactive when administered alone”.

**Q.** And the inhibition in vivo at 0.5 mg/kg (prolactin [3])?
**A.** The inhibition in vivo at 0.5 mg/kg was 13%.

**Q.** And the inhibition in vivo at 5 mg/kg (prolactin [3])?
**A.** The inhibition in vivo at 5 mg/kg was 16%.

**Q.** And the Prolactin (prolactin [3]; [11])?
**A.** The Prolactin was 76.0 ± 9.0 ng/mL.

**Q.** And the Prolactin (prolactin [3]; [12])?
**A.** Its Prolactin is 73.0 ± 10.0 ng/mL.

**Q.** With CCCCCCCCCCCCCC=CC(O)C(N)COC1OC(CO)C(O)C(O)C1O (stereo not shown) [psychosine, Psychosine or galactosylsphingosine] as the compound, how does the activity at 100 µM (dopamine receptors; [13]) read?
**A.** Its activity at 100 µM is 60%.

**Q.** What about the activity at 10 µM (dopamine receptors; [14]) of the same compound?
**A.** The activity at 10 µM was 90%.

**Q.** And the activity at 1 µM (dopamine receptors; [15])?
**A.** The activity at 1 µM was 100%.

**Q.** What about the activity at 0.1 µM (dopamine receptors; [15]) of the same compound?
**A.** The activity at 0.1 µM was 100%.

**Q.** And the Prolactin (prolactin [2]; [7])?
**A.** The Prolactin was 50.0 ± 5.0 ng/mL.

**Q.** And the Prolactin (prolactin [2]; [8])?
**A.** The Prolactin was 41.0 ± 5.0 ng/mL.

**Q.** And the inhibition in vivo at 0.5 mg/kg (prolactin [2]; [16])?
**A.** The inhibition in vivo at 0.5 mg/kg was 14%.

**Q.** What about the inhibition in vivo at 5 mg/kg (prolactin [2]; [16]) of the same compound?
**A.** Its inhibition in vivo at 5 mg/kg is 30%.

**Q.** And the Prolactin (prolactin [3]; [11])?
**A.** The Prolactin was 70.0 ± 6.0 ng/mL.

**Q.** And the Prolactin (prolactin [3]; [12])?
**A.** The Prolactin was 61.0 ± 7.0 ng/mL.
